Bridge positions count the residues as written; N and C are the ends. Square brackets hold non-standard residues; d marks the D form. Ends that are not written are not given here. I, II: the chains in the order shown. * marks the point of attachment. StBu = CC(C)(C)S*
What was measured:
[1] = system: P. aeruginosa; assay type: cell-based
[2] = system: S. mutans; assay type: cell-based
[3] = system: Staphylococcus aureus; assay: Mutant library in vitro inhibition activity, S. aureus; assay type: cell-based; conditions: relative growth after 18 hours of co-incubation
Experimental: (§1) A library of 340 mutants of original lytic peptide (killing domain in synbody) was synthesized with single amino acid substitutions. Mutants along with original peptide as positive control were tested in vitro for inhibition activity against S. aureus and Pseudomonas aeruginosa. […] Ratio reflect the improvement in activity as “Mutant[Relative growth]/Orignal[Relative growth].

[4] = system: S. aureus; assay: Solution inhibition assay, S. aureus; assay type: cell-based; conditions: negative control synbody
Experimental: The advantage of the synbody “DR-RW” over the single peptides can be noticed in the range 10-25 uM.

[5] = system: S. aureus; assay type: cell-based
[6] = In vivo characterization: immune response and acute toxicity in mice; design: species or system CD1 mice
From the text: FIG. 3. Graph of immune response cytoxicity data of a composition of the invention in CD1 mice.
(§2) GAL80 synbody was used as a negative control with no activity against S. aureus. […] Synbody was abbreviated as “SB”.

[7] = system: B. subtilis; assay type: cell-based
[8] = system: human cells; assay type: cell-based
From the text: FIG. 2. Graph of cytoxicity data of a composition of the invention in human tissue culture studies.
as §2

[9] = system: Pseudomonas aeruginosa; assay: Mutant library in vitro inhibition activity, Pseudomonas aeruginosa; assay type: cell-based; conditions: relative growth after 18 hours of co-incubation
Experimental: as §1

DRIFHKMQHKPYKIKKRGSC
Avg MIC ± SD, PA [1]: >100 µM | Avg MIC ± SD, SM [2]: >100 µM

FWRRHKHFKRPHRKHKR [Mut 14]
ratio, Mutant[Relative growth]/Orignal[Relative growth] [3]: 1.653

GAL80 synbody: synbody used as a negative control with no activity against S. aureus (peptide 1 GTEKGTSGWLKTGSC; peptide 2 EGEWTEGKLSLRGSC)
Activity against S. aureus [4]: no activity

I: DRIFHKMQHKPYKIKKRGSGGGKC(StBu)-NH2 / II: RWRRHKHFKRPHRKHKRGSG (amide I:23-II:C) [Synbody]
Avg MIC ± SD, PA [1]: 22 ± 1.8 µM | Avg MIC ± SD, SA [5]: 14 ± 0.8 µM | Avg MIC ± SD, SM [2]: >100 µM | Acute toxicity ([6]; 500 ug dose): no immune response or acute toxicity | Immune response ([6]; 500 ug dose, FIG. 3): no immune response | Level of IgG, PBS versus synbody injected mice ([6]; FIG. 3): no difference detected | Avg MIC ± SD, BS [7]: 14 ± 1.1 µM | Cytotoxic activity [8]: no cytotoxic activity

LWRRHKHFKRPHRKHKR [Mut 11]
ratio, Mutant[Relative growth]/Orignal[Relative growth] [3]: 1.58

PWRRHKHFKRPHRKHKR [Mut 15]
ratio, Mutant[Relative growth]/Orignal[Relative growth] [3]: 1.658

RLRRHKHFKRPHRKHKR [Mut 31]
ratio, Mutant[Relative growth]/Orignal[Relative growth] [3]: 1.633

RRRRHKHFKRPHRKHKR [Mut 22]
ratio, Mutant[Relative growth]/Orignal[Relative growth] [3]: 6.1 | ratio, Mutant[Relative growth]/Orignal[Relative growth] [9]: 2.073

RWRFHKHFKRPHRKHKR [Mut 74]
ratio, Mutant[Relative growth]/Orignal[Relative growth] [9]: 1.017

RWRRAKHFKRPHRKHKR [Mut 81]
ratio, Mutant[Relative growth]/Orignal[Relative growth] [3]: 1.525

RWRRFKHFKRPHRKHKR [Mut 94]
ratio, Mutant[Relative growth]/Orignal[Relative growth] [9]: 1.211

RWRRHFHFKRPHRKHKR [Mut 114]
ratio, Mutant[Relative growth]/Orignal[Relative growth] [9]: 10.95

RWRRHGHFKRPHRKHKR [Mut 108]
ratio, Mutant[Relative growth]/Orignal[Relative growth] [9]: 1.191

RWRRHHHFKRPHRKHKR [Mut 109]
ratio, Mutant[Relative growth]/Orignal[Relative growth] [9]: 1.395

RWRRHIHFKRPHRKHKR [Mut 110]
ratio, Mutant[Relative growth]/Orignal[Relative growth] [9]: 4.387

RWRRHKAFKRPHRKHKR [Mut 121]
ratio, Mutant[Relative growth]/Orignal[Relative growth] [9]: 2.297

RWRRHKHFKRDHRKHKR [Mut 204]
ratio, Mutant[Relative growth]/Orignal[Relative growth] [9]: 2.107

RWRRHKHFKRFHRKHKR [Mut 214]
ratio, Mutant[Relative growth]/Orignal[Relative growth] [9]: 1.134

RWRRHKHFKRMHRKHKR [Mut 213]
ratio, Mutant[Relative growth]/Orignal[Relative growth] [9]: 1.185

RWRRHKHFKRPHRKHFR [Mut 314]
ratio, Mutant[Relative growth]/Orignal[Relative growth] [3]: 1.497

RWRRHKHFKRPHRKHKF [Mut 334]
ratio, Mutant[Relative growth]/Orignal[Relative growth] [3]: 2.37

RWRRHKHFKRPHRKHKK [Mut 332]
ratio, Mutant[Relative growth]/Orignal[Relative growth] [3]: 2.438

RWRRHKHFKRPHRKHKRGSC
Avg MIC ± SD, PA [1]: 27 ± 2.3 µM | Avg MIC ± SD, SA [5]: 28 ± 1.5 µM | Avg MIC ± SD, SM [2]: >100 µM | Avg MIC ± SD, BS [7]: 20 ± 0.3 µM

RWRRHKHFKRPHRKTKR [Mut 297]
ratio, Mutant[Relative growth]/Orignal[Relative growth] [3]: 2.339

RWRRHKHFKRPHRKVKR [Mut 300]
ratio, Mutant[Relative growth]/Orignal[Relative growth] [3]: 1.453

RWRRHKHFKRPYRKHKR [Mut 239]
ratio, Mutant[Relative growth]/Orignal[Relative growth] [3]: 2.12

RWRRHKHFKRRHRKHKR [Mut 202]
ratio, Mutant[Relative growth]/Orignal[Relative growth] [9]: 1.3565

RWRRHKHFRRPHRKHKR [Mut 162]
ratio, Mutant[Relative growth]/Orignal[Relative growth] [3]: 2.125

RWRRHKHKKRPHRKHKR [Mut 152]
ratio, Mutant[Relative growth]/Orignal[Relative growth] [3]: 2.049

RWRRHKHLKRPHRKHKR [Mut 151]
ratio, Mutant[Relative growth]/Orignal[Relative growth] [3]: 1.312

RWRRHKHMKRPHRKHKR [Mut 153]
ratio, Mutant[Relative growth]/Orignal[Relative growth] [3]: 2.293

RWRRHKHPKRPHRKHKR [Mut 155]
ratio, Mutant[Relative growth]/Orignal[Relative growth] [3]: 2.359

RWRRHKRFKRPHRKHKR [Mut 122]
ratio, Mutant[Relative growth]/Orignal[Relative growth] [3]: 17.45 | ratio, Mutant[Relative growth]/Orignal[Relative growth] [9]: 3.121

RWRRHKVFKRPHRKHKR [Mut 140]
ratio, Mutant[Relative growth]/Orignal[Relative growth] [3]: 1.658

RWRRHKWFKRPHRKHKR [Mut 138]
ratio, Mutant[Relative growth]/Orignal[Relative growth] [9]: 1.315

RWRRHKYFKRPHRKHKR [Mut 139]
ratio, Mutant[Relative growth]/Orignal[Relative growth] [3]: 2.136 | ratio, Mutant[Relative growth]/Orignal[Relative growth] [9]: 1.164

RWRRHKd-KFKRPHRKHKR (RWRRHK[dK]FKRPHRKHKR) [Mut 125]
ratio, Mutant[Relative growth]/Orignal[Relative growth] [3]: 1.593

RWRRHLHFKRPHRKHKR [Mut 111]
ratio, Mutant[Relative growth]/Orignal[Relative growth] [9]: 1.71

RWRRHRHFKRPHRKHKR [Mut 102]
ratio, Mutant[Relative growth]/Orignal[Relative growth] [9]: 1.077

RWRRHVHFKRPHRKHKR [Mut 120]
ratio, Mutant[Relative growth]/Orignal[Relative growth] [9]: 3.684

RWRRIKHFKRPHRKHKR [Mut 90]
ratio, Mutant[Relative growth]/Orignal[Relative growth] [3]: 1.747

RWRRMKHFKRPHRKHKR [Mut 93]
ratio, Mutant[Relative growth]/Orignal[Relative growth] [9]: 1.035

RWRRNKHFKRPHRKHKR [Mut 83]
ratio, Mutant[Relative growth]/Orignal[Relative growth] [3]: 13.15

RWRRPKHFKRPHRKHKR [Mut 95]
ratio, Mutant[Relative growth]/Orignal[Relative growth] [3]: 9.077

RWRRWKHFKRPHRKHKR [Mut 98]
ratio, Mutant[Relative growth]/Orignal[Relative growth] [9]: 1.183

d-KWRRHKHFKRPHRKHKR ([dK]WRRHKHFKRPHRKHKR; not fully specified (some residues)) [Mut 5]
ratio, Mutant[Relative growth]/Orignal[Relative growth] [3]: 1.308

From patent US9309298B2, “Anti-bacterial polypeptides and pathogen specific synthetic antibodies” (priority 2011, dated 2016)
